From article PMC6681416, “Novel Derivatives of Deoxycholic Acid Bearing Linear Aliphatic Diamine and Aminoalcohol Moieties and their Cyclic Analogs at the C3 Position: Synthesis and Evaluation of Their In Vitro Antitumor Potential” (Molecules, 2019)

What was measured:
[1] = system: non-transformed human fibroblasts hFF3; test: MTT cytotoxicity assay, hFF3; assay type: cell-based; details: HFF-3, 24 h, read-out: IC50 hFF3 (fibroblast)
Description: (§1) According to our previous data and data published by other research groups, chemical transformations of bile acids can greatly improve their antitumor potential. Thus, as the first step of evaluation of the biological activities of our novel DCA derivatives we assessed their effects on tumor cell viability. The cytotoxicity of the compounds was investigated with respect to a panel of cultured cell lines, including human duodenal HuTu-80, hepatocellular HepG2, cervical KB-3-1 and lung A549 carcinomas as well as murine macrophage RAW264.7 and non-transformed human fibroblasts hFF3 by MTT assay.
Human duodenal carcinoma HuTu-80 cells, human hepatocellular carcinoma HepG2 cells, human cervical carcinoma KB-3-1 cells, human lung carcinoma A549 cells were obtained from the Russian Cell Culture Collection (Institute of Cytology, RAS, St. Petersburg, Russia). Non-transformed human fibroblasts hFF3 were kindly provided by Dr. Olga Koval (Institute of Chemical Biology and Fundamental Medicine, SB RAS, Novosibirsk, Russia). RAW264.7 macrophages were kindly provided by Prof. Dr. Dmitry Kuprash (Engelhardt Institute of Molecular Biology, RAS, Moscow, Russia). The cells were cultured in DMEM (Sigma-Aldrich Inc., St. Louis, MO, USA) supplemented with 10% (v/v) heat-inactivated fetal bovine serum (FBS) (BioloT, St. Petersburg, Russia), 100 U/mL penicillin (ICN Biomedicals Inc., Costa Mesa, CA, USA), 100 µg/mL streptomycin and 0.25 µg/mL amphotericin; additionally, in the case of RAW264.7 cells, concentration of glucose in the medium was increased up to 4.5 mg/mL. The cells were incubated at 37 °C in 5% CO2 and 95% air (hereafter referred to as standard conditions). […]
Cells were seeded in triplicate in 96-well plates at a density of 5 × 10^3 (HuTu-80, HepG2, KB-3-1, hFF3), 10^4 (A549) or 5 × 10^4 (RAW264.7) cells per well. […] The crystals of formazan forming within live cells were solubilized with DMSO and the absorbance was measured in a Multiscan RC plate reader (Thermo LabSystems, Helsinki, Finland) at a test and reference wavelengths of 570 nm and 620 nm, respectively. […]

[2] = system: HuTu-80 cells; test: cells; assay type: cell-based; details: for IC50: Homo sapiens, HuTu80, MTT, 24 h, read-out: IC50 HuTu-80 (duodenum); for Selectivity index HuTu-80: ratio IC50 hFF3 / IC50 HuTu-80
Description: as §1
(§2) Human duodenal carcinoma HuTu-80 cells, human hepatocellular carcinoma HepG2 cells, human cervical carcinoma KB-3-1 cells, human lung carcinoma A549 cells were obtained from the Russian Cell Culture Collection (Institute of Cytology, RAS, St. Petersburg, Russia). Non-transformed human fibroblasts hFF3 were kindly provided by Dr. Olga Koval (Institute of Chemical Biology and Fundamental Medicine, SB RAS, Novosibirsk, Russia). RAW264.7 macrophages were kindly provided by Prof. Dr. Dmitry Kuprash (Engelhardt Institute of Molecular Biology, RAS, Moscow, Russia). The cells were cultured in DMEM (Sigma-Aldrich Inc., St. Louis, MO, USA) supplemented with 10% (v/v) heat-inactivated fetal bovine serum (FBS) (BioloT, St. Petersburg, Russia), 100 U/mL penicillin (ICN Biomedicals Inc., Costa Mesa, CA, USA), 100 µg/mL streptomycin and 0.25 µg/mL amphotericin; additionally, in the case of RAW264.7 cells, concentration of glucose in the medium was increased up to 4.5 mg/mL. The cells were incubated at 37 °C in 5% CO2 and 95% air (hereafter referred to as standard conditions). DCA derivatives were dissolved in DMSO to yield stock solutions of 10 mmol/L and stored at −20 °C prior to use.
(§3) Cells were seeded in triplicate in 96-well plates at a density of 5 × 10^3 (HuTu-80, HepG2, KB-3-1, hFF3), 10^4 (A549) or 5 × 10^4 (RAW264.7) cells per well. Cells were incubated under standard conditions for 24 h and then they were treated with varying doses of investigated derivatives for subsequent 24 h. Then 10 µL of MTT solution (5 mg/mL) were added to each wells and cells were incubated for an additional 2 h under standard conditions. The crystals of formazan forming within live cells were solubilized with DMSO and the absorbance was measured in a Multiscan RC plate reader (Thermo LabSystems, Helsinki, Finland) at a test and reference wavelengths of 570 nm and 620 nm, respectively. […] To perform SAR analysis, hierarchical clustering of compounds based on their IC50 values was fulfilled with Euclidean distance by using the Morpheus tool (https://software.broadinstitute.org/morpheus/), a platform designed for visualization and analysis of data in a matrix format. Heatmap, containing compounds’ SI values, were constructed by using the Excel 2010 software (Microsoft, Redmond, WA, USA). In order to reveal whether ROS participate in the induction of cell death by compound 9, HuTu-80 cells cultured in 96-well plate were pretreated by NAC at 2 mM for 1 h. Thereafter, the medium was replaced by fresh medium with compound 9 at 8 µM and the cells were incubated with subsequent 24 h under standard conditions. After this time period, the curves of cytotoxicity of compound 9 in the presence or absence of NAC were compared.

[3] = system: A549 cells; test: MTT cytotoxicity assay, A549; assay type: cell-based, human; details: for IC50: Homo sapiens, A549, MTT, 24 h, read-out: IC50 A549 (lung); for Selectivity index A549: ratio IC50 hFF3 / IC50 A549
Description: as §1, §2, §3

[4] = Solubility in cell culture medium; assay type: physicochemical; details: maximal tested concentration limited by 50 µM
[5] = system: HepG2 cells; test: MTT cytotoxicity assay, HepG2; assay type: cell-based, human; details: for IC50: Homo sapiens, HepG2, MTT, 24 h, read-out: IC50 HepG2 (liver); for Selectivity index HepG-2: ratio IC50 hFF3 / IC50 HepG2
Description: as §1, §2, §3

[6] = system: RAW264.7 macrophages; test: MTT cytotoxicity assay, RAW264.7; assay type: cell-based, murine; details: for IC50: Mus musculus, RAW264.7, MTT, 24 h, read-out: IC50 RAW264.7 (macrophage); for Selectivity index RAW264: ratio IC50 hFF3 / IC50 RAW264.7
Description: as §1, §2, §3

[7] = system: KB-3-1 cells; test: MTT cytotoxicity assay, KB-3-1; assay type: cell-based, human; details: for IC50: Homo sapiens, KB 3-1, MTT, 24 h, read-out: IC50 KB3-1 (cervix); for Selectivity index KB-3-1: ratio IC50 hFF3 / IC50 KB-3-1
Description: as §1, §2, §3

[8] = system: NO synthesis by IFNγ-activated RAW264.7 cells; test: Inhibition of NO production by stimulated macrophages (Griess); assay type: cell-based, murine; details: Mus musculus, RAW264.7, 24 h, read-out: IC50NO
Protocol: RAW264.7 cells were seeded in triplicate in 96-well plates at a density of 5 × 10^4 cells/well and incubated under standard conditions for 24 h. The cells were treated with 20 ng/mL of murine recombinant IFNγ (GIBCO, Gaithersburg, MD, USA), with or without (control) compounds at various concentrations for 24 h. The level of NO production was evaluated by determining the nitrite concentration in culture medium with a Griess Reagent System (Promega, Madison, WI, USA). The IC50^NO value was calculated as the derivative concentration required to decrease NO production to 50% of the non-treated control.

[9] = system: panel of cultured cell lines (HuTu-80, HepG2, KB-3-1, A549, RAW264.7, hFF3); test: MTT cytotoxicity, range over the panel of tested cell lines; assay type: cell-based; details: 24 h, summary of Table 1 (for 2–10 partly from ref [21])
Description: as §1
Cells were seeded in triplicate in 96-well plates at a density of 5 × 10^3 (HuTu-80, HepG2, KB-3-1, hFF3), 10^4 (A549) or 5 × 10^4 (RAW264.7) cells per well. Cells were incubated under standard conditions for 24 h and then they were treated with varying doses of investigated derivatives for subsequent 24 h. Then 10 µL of MTT solution (5 mg/mL) were added to each wells and cells were incubated for an additional 2 h under standard conditions. The crystals of formazan forming within live cells were solubilized with DMSO and the absorbance was measured in a Multiscan RC plate reader (Thermo LabSystems, Helsinki, Finland) at a test and reference wavelengths of 570 nm and 620 nm, respectively. […]

SMILES	IC50 [1]	IC50 [2]	Selectivity index HuTu-80 [2]	IC50 [3]	Selectivity index A549 [3]	solubility in cell culture medium [4]	IC50 [5]	Selectivity index HepG-2 [5]	IC50 [6]	Selectivity index RAW264 [6]	IC50 [7]	Selectivity index KB-3-1 [7]	IC50 [8]	IC50 [9]
COC(=O)CC[C@@H](C)[C@H]1CC[C@H]2[C@@H]3CC[C@@H]4CC(O)(CN5CCOCC5)CC[C@]4(C)[C@H]3CC(=O)[C@]12C (stereo partly drawn) [Compound 10, Methyl 3-hydroxy-3-(morpholinomethyl)-12-oxo-5β-cholan-24-oate]	> 50 µM	10 ± 0.3 µM	5	> 50 µM	1	poorly soluble	7.5 ± 1.2 µM	6.6	> 50 µM	1	8.4 ± 0.5 µM	5.9	> 10 µM	–
COC(=O)CC[C@@H](C)[C@H]1CC[C@H]2[C@@H]3CC[C@@H]4CC(O)(CNCCO)CC[C@]4(C)[C@H]3CC(=O)[C@]12C (stereo partly drawn) [Compound 8, Methyl 3-hydroxy-3-((2-hydroxyethylamino)methyl)-12-oxo-5β-cholan-24-oate]	34.8 ± 1 µM	4.4 ± 0.34 µM	7.9	29.6 ± 2.5 µM	1.2	–	5.8 ± 1.3 µM	6	23.4 ± 1.2 µM	1.5	17.7 ± 2.8 µM	1.9	> 10 µM	4.4 to 34.8 µM
